“Also recorded” adds a separate entry of the source.
Legend:
HepG2/C3A liver cells [1] = assay: Urea production in collected cell culture medium of the body cube; assay type: cell-based, human
HepG2/C3A liver cells [2] = assay type: cell-based
Description: After 24 h, the cell-loaded 3D scaffolds were aseptically transferred into the tissue chambers of the appropriate tissues chip. The chips were then placed on top of each other, so that the back of one tissue chamber closed the opening of the tissue chip below it. The tissue chip stack was then inserted into the holder. The two reservoirs of the cube were filled with 32.5 μL of EMEM (containing a volume fraction of 10% FBS) each, and the device was placed onto a rocker platform that tilted back and forth at an angle of 45°. The platform changed its tilt from 45° to −45° every 60 s continuously for 72 h. Culture medium was collected and replaced with fresh medium after 1 h, 16 h, 24 h, 40 h, 48 h, and 64 h. The total amount of blood surrogate (i.e. the amount of cell culture medium that we consider blood surrogate) inside the system consisted of 2×32.5 μL (medium in the reservoirs), plus 15 μL (medium inside the microfluidic channels that deliver medium to the tissue culture chambers).
To estimate cell death during co-culture, we measured AST concentrations in the cell culture medium recovered from the devices after 1 h, 16 h, 40 h and 64 h of co-culture. The AST activity was measured with an assay kit. Briefly, standard samples and medium samples were added to the 96 well plate. We then added 100 μL of working solution to each well and mixed both solutions by gently tapping the plate. The plate was then incubated inside a plate reader in the dark, at 37° C. […] We then selected the initial absorbance value inside the linear range and calculated the AST concentrations using the protocol given in the kit. The results are expressed as μg per million cells produced in relation to a 1 h baseline measurement.
Similar to the baseline experiments described above, we recovered cell cultures after 72 h of co-culture from the device.

HepG2/C3A liver cells [3] = assay: Albumin synthesis by ELISA in cell culture medium of the body cube; assay type: cell-based, human; conditions: drugs added to the cube; compared to control without drug
HepG2/C3A liver cells [4] = assay: Cell viability stain of liver cells after 72 h co-culture in the body cube; assay type: cell-based, human; conditions: 72 h four-tissue co-culture in body cube, 80 μL recirculating medium; compared to control without drug

Structure (SMILES): Cc1c(C)c2c(c(C)c1O)CCC(C)(COc1ccc(CC3SC(=O)NC3=O)cc1)O2 (stereo not shown) [troglitazone]
- metabolic activity of the tissues (HepG2/C3A liver cells [1]; body cube co-culture challenged with drug): decrease in metabolic activity
- urea production (HepG2/C3A liver cells [1]; drugs added to the cube, compared to control without drug): decreased
- cytosolic enzymes released vs cultures not exposed to drugs (HepG2/C3A liver cells [2]; after 40 h of exposure): significantly larger amounts
- cytosolic enzyme concentration in the medium vs control cultures (HepG2/C3A liver cells [2]; after 48 h): similar
- AST in the cell culture medium (HepG2/C3A liver cells [2]; body cube co-culture, compared to control without drug): significantly higher; also recorded: temporary increase of AST
- albumin production (HepG2/C3A liver cells [3]): not albumin production was decreased
- cell viability in the liver chamber (viability stain, fluorescence images) (HepG2/C3A liver cells [4]): significant liver damage; also recorded: expected cell death; also recorded: significantly lowered cell viability
